Measured values reported in patent US20150111781A1, “ANALYZING SEMAPHORIN7A (Sema7A) LEVELS FOR ASSESSING CANCER METASTATIC POTENTIAL” (Florida Atlantic University, priority 2012, published 2015).

Test system: MCF-10A cells
Experiment: TGF-β1 induction of Sema7A gene expression by qRT-PCR
Type: cell-based, human
Conditions: 5 ng/ml, within 18 hours, vs vehicle
Method: We then wanted to establish an in vitro system to study the functional role of Sema7A in the breast epithelia. To do so, we assayed the Sema7A expression in human breast cell lines with varying degrees of malignancy using quantitative real-time PCR (qRT-PCR).
We treated MCF-10A cells with 5 ng/ml of TGF-β1 or vehicle for 18, 24 or 36 hours. MCF-10A cells were then assayed for Sema7A gene expression by qRT-PCR. […] TGF-β1 is a key inducer of epithelial to mesenchymal transition (EMT) and Sema7A could serve as a down-stream effecter of TGF-β1 in EMT.

TGF-β1: Transforming growth factor beta-1, used to induce Sema7A expression in MCF-10A breast epithelial cells
expression of Sema7A: significantly increased
